Measurements reported in paper PMC7479175, “Selection of Potent Inhibitors of Soluble Epoxide Hydrolase for Usage in Veterinary Medicine” (Frontiers in Veterinary Science, 2020).

Columns and labels:
Type in all cases: biochemical
Dog sEH [1] = molecular target: T1, Dog sEH (Canis lupus familiaris, UniProt A0A8I3NJL8); assay: Secondary screen (kinetic mode), PHOME substrate; details: [I] = 100 nM, secondary kinetic mode screening; read-out: Dog sEH Inhibition (%) S.
T1 sequence (A0A8I3NJL8 1-556): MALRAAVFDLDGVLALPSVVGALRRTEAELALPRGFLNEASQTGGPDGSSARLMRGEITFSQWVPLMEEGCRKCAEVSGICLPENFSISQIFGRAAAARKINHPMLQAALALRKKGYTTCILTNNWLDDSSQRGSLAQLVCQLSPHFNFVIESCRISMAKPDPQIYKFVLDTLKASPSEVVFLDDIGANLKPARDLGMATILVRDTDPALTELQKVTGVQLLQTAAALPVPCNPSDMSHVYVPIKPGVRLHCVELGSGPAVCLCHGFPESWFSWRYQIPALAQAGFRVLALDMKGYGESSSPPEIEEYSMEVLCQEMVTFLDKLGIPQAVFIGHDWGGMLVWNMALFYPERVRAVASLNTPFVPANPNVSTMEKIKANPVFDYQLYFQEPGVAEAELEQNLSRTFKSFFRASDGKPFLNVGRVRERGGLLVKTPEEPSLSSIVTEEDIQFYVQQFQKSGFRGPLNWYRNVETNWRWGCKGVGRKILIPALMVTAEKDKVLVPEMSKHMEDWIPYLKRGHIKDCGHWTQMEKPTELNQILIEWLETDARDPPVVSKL

[2] = molecular target: T2, sEH activity from liver cytosol of Mouse (Mus musculus, UniProt P34914); assay: sEH inhibition potency (IC50), radioactive assay with [3H]t-DPPO, liver cytosol; details: [3H]t-DPPO ([S]final = 5 μM) as substrate
T2 construct: The radioactive fluorescent assay was used with the liver crude extracts; from tissue; host or cells: mouse liver cytosol (100,000 g supernatant)
T2 sequence (P34914 1-554): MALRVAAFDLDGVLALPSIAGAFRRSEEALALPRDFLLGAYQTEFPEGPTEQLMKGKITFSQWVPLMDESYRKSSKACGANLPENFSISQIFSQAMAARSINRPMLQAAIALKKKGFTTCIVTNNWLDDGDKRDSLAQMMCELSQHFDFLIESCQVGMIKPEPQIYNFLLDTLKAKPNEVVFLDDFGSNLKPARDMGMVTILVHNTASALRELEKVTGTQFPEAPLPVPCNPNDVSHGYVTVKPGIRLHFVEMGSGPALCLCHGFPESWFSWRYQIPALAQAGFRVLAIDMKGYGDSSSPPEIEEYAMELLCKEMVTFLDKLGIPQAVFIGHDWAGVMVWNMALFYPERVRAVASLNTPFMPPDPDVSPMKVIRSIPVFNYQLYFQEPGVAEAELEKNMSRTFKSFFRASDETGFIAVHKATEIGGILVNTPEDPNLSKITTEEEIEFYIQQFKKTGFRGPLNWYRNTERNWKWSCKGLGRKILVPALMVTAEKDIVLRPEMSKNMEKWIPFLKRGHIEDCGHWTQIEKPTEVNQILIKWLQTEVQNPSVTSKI

Horse sEH [3] = molecular target: T3, Horse sEH (Equus caballus, UniProt F7C407); assay: Secondary screen (kinetic mode), PHOME substrate; details: [I] = 100 nM, secondary kinetic mode screening; read-out: Horse sEH Inhibition (%) S.
Cat sEH [4] = molecular target: T4, Cat sEH (Felis catus, UniProt A0ABI7ZL20); assay: sEH inhibition potency (IC50), fluorescent assay with CMNPC, partially purified enzyme; details: CMNPC ([S]final = 5 μM) as substrate; average ± standard deviation (n = 3)
Description: The sEH activity from the cat, dog and horse liver was further purified to eliminate contaminating esterase activity that could interfere with the screening fluorescent assay ([16]). The cytosolic fraction was loaded on a Q-Sepharose column (100 mL) equilibrated with sodium phosphate buffer (20 mM pH 7.4). After washing of the bound proteins, the sEH activity was eluted with a step gradient of NaCl (0–1 M). The fractions containing the sEH activity were pooled and concentrated using a Centriprep-30. The concentrates were aliquoted and flash frozen, then kept frozen at −80°C until usage. […] Protein concentration was quantified using the Pierce BCA assay (Pierce, Rockford, IL), using Fraction V bovine serum albumin (BSA) as the calibrating standard.
The IC50 values reported herein were determined using either a fluorescent based assay (CMNPC as substrate) for purified enzyme preparations or a radioactive based assay ([^3H]t-DPPO as substrate) for crude enzyme preparations ([20]). The fluorescent assay was used with the purified proteins. […] The substrate (CMNPC) was then added ([S]final = 5 μM). […] Assays were performed in triplicate.

Horse sEH [5] = molecular target: T3, Horse sEH; assay: Primary screen (end point) of the sEH inhibitor library, PHOME substrate; details: [I] = 100 nM, primary end-point screening; read-out: Horse sEH Inhibition (%) P.
Description: (§1) Primary screening of the library was performed with an inhibitor concentration of 100 nM using PHOME as substrate ([22]). […] The plates were then mixed and incubated at 30°C for 5 min. Across each plate, 30 μL of the working substrate solution (270 μL of 5 mM PHOME solution in DMSO diluted with 3,680 μL of buffer) were added quickly to yield [S]final: 50 μM. Each plate was further incubated at room temperature (horse sEH: 60 min; cat sEH: 45 min; dog sEH: 30 min).

Cat sEH [6] = molecular target: T4, Cat sEH; assay: as above; details: read-out: Cat sEH Inhibition (%) P.
Description: as §1

Dog sEH [7] = molecular target: T1, Dog sEH; assay: as above; details: [I] = 100 nM, primary end-point screening; read-out: Dog sEH Inhibition (%) P.
Description: as §1

T4 sequence (A0ABI7ZL20 entry or part of it): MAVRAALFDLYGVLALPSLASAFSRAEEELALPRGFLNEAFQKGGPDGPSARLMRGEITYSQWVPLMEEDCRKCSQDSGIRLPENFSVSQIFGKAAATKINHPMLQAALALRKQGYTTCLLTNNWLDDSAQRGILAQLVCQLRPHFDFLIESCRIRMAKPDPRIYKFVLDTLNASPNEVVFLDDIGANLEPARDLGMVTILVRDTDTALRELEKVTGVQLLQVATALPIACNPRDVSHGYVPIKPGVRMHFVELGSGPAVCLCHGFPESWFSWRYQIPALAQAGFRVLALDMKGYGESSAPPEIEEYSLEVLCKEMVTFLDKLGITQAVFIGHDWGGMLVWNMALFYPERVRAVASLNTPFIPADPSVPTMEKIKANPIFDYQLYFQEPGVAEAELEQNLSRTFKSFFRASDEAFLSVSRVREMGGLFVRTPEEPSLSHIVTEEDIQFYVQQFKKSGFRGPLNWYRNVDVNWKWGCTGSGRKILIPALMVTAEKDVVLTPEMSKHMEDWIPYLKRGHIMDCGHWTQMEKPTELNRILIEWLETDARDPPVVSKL
T3 sequence (F7C407 entry or part of it): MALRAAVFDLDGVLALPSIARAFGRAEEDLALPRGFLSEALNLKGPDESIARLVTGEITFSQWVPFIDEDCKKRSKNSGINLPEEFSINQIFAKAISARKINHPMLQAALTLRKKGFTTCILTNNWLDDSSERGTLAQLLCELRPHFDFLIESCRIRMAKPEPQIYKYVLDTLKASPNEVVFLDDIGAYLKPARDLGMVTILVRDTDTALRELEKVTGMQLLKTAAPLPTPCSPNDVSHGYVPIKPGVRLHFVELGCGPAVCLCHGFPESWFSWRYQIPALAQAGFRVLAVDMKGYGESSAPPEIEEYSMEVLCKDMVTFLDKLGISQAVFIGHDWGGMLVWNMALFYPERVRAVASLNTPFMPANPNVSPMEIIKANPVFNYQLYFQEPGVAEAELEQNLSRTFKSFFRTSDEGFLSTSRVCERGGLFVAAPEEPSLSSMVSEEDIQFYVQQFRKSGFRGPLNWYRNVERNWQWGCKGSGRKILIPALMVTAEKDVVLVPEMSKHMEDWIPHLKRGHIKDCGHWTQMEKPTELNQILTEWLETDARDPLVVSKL

Compound | inhibition at 0.1 µM (Dog sEH [1]) [%] | IC50 [2] [nM] | inhibition at 0.1 µM (Horse sEH [3]) [%] | IC50 (Cat sEH [4]) [nM] | inhibition at 0.1 µM (Horse sEH [5]) [%] | inhibition at 0.1 µM (Cat sEH [6]) [%] | inhibition at 0.1 µM (Dog sEH [7]) [%]
O=C(NCCCCOc1ccc(F)cc1)NC12CC3CC(CC(C3)C1)C2 [1,707] | 83 | 10 | 87 | 0.5 ± 0.02 | 101 | 94 | < 90
N#CNC(=O)CCCCCCCCCCCNC(=O)NC12CC3CC(CC(C3)C1)C2 [1,845] | 83 | 17 | 88 | 0.4 ± 0.01 | 100 | 101 | 95
